Laboratory results as given in US8940897B2, “1,3,4-oxadiazole and 1,3,4-thiadiazole β-lactamase inhibitors” (priority 2012, dated 2015).
Structures can show the parent of a compound that is named as a salt.

Key:
[1] = test system: bacterial strains that express the class D cephalosporinase OXA-15; experiment: Synergy MIC / standard BLI potentiation MIC assay, strains expressing OXA-15;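 note: more active means a lower MIC or sMIC than Avibactam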; type: cell-based, E. coli; settings: in the presence of a β-lactam; comparator Avibactam (CCC)
Experimental: (§1) Unless otherwise indicated, the activity of the BLI compounds can be described by the MIC value obtained from a Synergy MIC assay or a BLI potentiation assay (e.g as described herein), both of which are run in the presence of a β-lactam.
(§2) The experimental protocol was performed according to Clinical and Laboratory Standards Institute (CLSI) guidelines with modifications as described below (CLSI guidelines can be derived from the CLSI document M07-A9 published in January 2012: “Methods for Dilution Antimicrobial Susceptibility Tests for Bacteria That Grow Aerobically; Approved Standard-Ninth Edition”).
(§3) To prepare for MIC testing, frozen glycerol stocks of clinical isolates (Klebsiella pneumoniae, Eschericia coli, Enterobacter spp, Citrobacter spp, or Pseudomonas aeruginosa) were used to streak for isolated colonies on rich, non-selective, tryptic soy agar containing 5% sheep's blood (TSAB). Frozen glycerol stocks of laboratory engineered, isogenic E. coli strains, which contain cloned β-lactamase expressing plasmids were used to streak for isolated colonies on rich, selective LB agar supplemented with 25 μg/mL tetracycline to maintain the plasmid. All strains were incubated at 37° C. for 18-24 hrs.
(§4) On the day of testing, primary cultures were started by scraping off 5-10 colonies from the TSAB plates containing clinical strains or the tetracycline supplemented LB plates containing engineered strains. The clinical strain material was suspended in ˜5 mL of cation adjusted Mueller Hinton Broth (CAMHB) in 14 mL culture tubes. The engineered strain material was suspended in CAMHB (supplemented with 25 μg/mL tetracycline) in 14 mL culture tubes. All strains were incubated at 37° C. with aeration (200 rpm) for ˜2 hrs until the optical density at 600 nm (OD600) was ≧0.1.
(§5) The two compound components of the assay were each diluted in CAMHB and added to the 96-well broth microdilution assay plates. 50 μL of the β-lactam was added to each well of the assay plate in 2-fold dilutions with final concentrations ranging from 128 to 0.13 μg/mL. 25 μL of the BLI compound was added to all wells in the broth microdilution plates at a final concentration of 4 μg/mL. Inoculum cultures were prepared by standardizing the primary cultures to OD600=0.1 and then adding 20 μL of the adjusted primary culture per 1 mL CAMHB for clinical strains or CAMHB (supplemented with tetracycline at 100 μg/mL) for engineered strains, so that the final inoculum density was ˜10^5 colony forming units per milliliter. Diluted inoculum cultures were used to inoculate 25 μl, per well in 96-well broth microdilution assay plates. The final volume of each well was 100 μL and contained a β-lactam at different concentrations, a BLIcompound at 4 μg/mL concentration, the bacterial culture at an OD600 of approximately 0.001 and when necessary tetracycline at 25 μg/mL.
(§6) Plates were incubated for 18-20 hours at 37° C. with aeration (200 rpm). Following incubation, growth was confirmed visually placing plates over a viewing apparatus (stand with a mirror underneath) and then OD600 was measured using a SpectraMax 340PC384 plate reader (Molecular Devices, Sunnyvale, Calif.). Growth was defined as turbidity that could be detected with the naked eye or achieving minimum OD600 of 0.1. MIC values were defined as the lowest concentration producing no visible turbidity.
(§7) The synergy MIC (sMIC) assay determines the concentration of the BLI required to potentiate the activity of a fixed concentration of a β-lactam antibiotic against β-lactamase producing bacterial strains. The experimental protocol was performed according to Clinical and Laboratory Standards Institute (CLSI) guidelines with modifications as described below (CLSI guidelines can be derived from the CLSI document M07-A9 published in January 2012: “Methods for Dilution Antimicrobial Susceptibility Tests for Bacteria That Grow Aerobically; Approved Standard-Ninth Edition”). […]

[2] = test system: bacterial strains that express KPC β-lactamases; experiment: Synergy MIC / standard BLI potentiation MIC assay, strains expressing KPC β-lactamases; type: cell-based; settings: for at least one KPC strain and/or a better spectrum of activity against KPC strains than Avibactam; in the presence of a β-lactam
Experimental: as §1, §2, §3, §4, §5, §6, §7

SMILES	activity against bacterial strains that express OXA-15 β-lactamase compared with Avibactam [1]	activity against bacterial strains that express KPC β-lactamase compared with Avibactam [2]
O=C1N2C[C@@H](CC[C@H]2c2nnco2)N1OS(=O)(=O)O [Compound 701, (2S,5R)-2-(1,3,4-oxadiazol-2-yl)-7-oxo-1,6-diazabicyclo[3.2.1]octan-6-yl hydrogen sulfate]	more active than Avibactam	more active than Avibactam
NCc1nnc([C@@H]2CC[C@@H]3CN2C(=O)N3OS(=O)(=O)O)o1 [Compound 702, (2S,5R)-2-(5-(aminomethyl)-1,3,4-oxadiazol-2-yl)-7-oxo-1,6-diazabicyclo[3.2.1]octan-6-yl hydrogen sulfate]	more active than Avibactam	more active than Avibactam
NCCc1nnc([C@@H]2CC[C@@H]3CN2C(=O)N3OS(=O)(=O)O)o1 [Compound 703, (2S,5R)-2-(5-(2-aminoethyl)-1,3,4-oxadiazol-2-yl)-7-oxo-1,6-diazabicyclo[3.2.1]octan-6-yl hydrogen sulfate]	more active than Avibactam	more active than Avibactam
N=C(N)NCCc1nnc([C@@H]2CC[C@@H]3CN2C(=O)N3OS(=O)(=O)O)o1 [Compound 705, (2S,5R)-2-(5-(2-guanidinoethyl)-1,3,4-oxadiazol-2-yl)-7-oxo-1,6-diazabicyclo[3.2.1]octan-6-yl hydrogen sulfate]	more active than Avibactam	more active than Avibactam
NC(=O)c1nnc([C@@H]2CC[C@@H]3CN2C(=O)N3OS(=O)(=O)O)o1 [Compound 706, (2S,5R)-2-(5-carbamoyl-1,3,4-oxadiazol-2-yl)-7-oxo-1,6-diaza-bicyclo[3.2.1]octan-6-yl hydrogen sulfate]	more active than Avibactam	more active than Avibactam
O=C1N2C[C@@H](CC[C@H]2c2nnc(C3CNC3)o2)N1OS(=O)(=O)O [Compound 708, (2S,5R)-2-(5-(azetidin-3-yl)-1,3,4-oxadiazol-2-yl)-7-oxo-1,6-diazabicyclo[3.2.1]octan-6-yl hydrogen sulfate]	more active than Avibactam	more active than Avibactam
N=C(N)N1CC(c2nnc([C@@H]3CC[C@@H]4CN3C(=O)N4OS(=O)(=O)O)o2)C1 [Compound 709, (2S,5R)-2-(5-(1-carbamimidoylazetidin-3-yl)-1,3,4-oxadiazol-2-yl)-7-oxo-1,6-diazabicyclo[3.2.1]octan-6-yl hydrogen sulfate]	more active than Avibactam	more active than Avibactam
O=C1N2C[C@@H](CC[C@H]2c2nnc(C3CCNC3)o2)N1OS(=O)(=O)O (stereo partly drawn) [Compound 710, (2S,5R)-7-oxo-2-(5-(pyrrolidin-3-yl)-1,3,4-oxadiazol-2-yl)-1,6-diazabicyclo[3.2.1]octan-6-yl hydrogen sulfate]	more active than Avibactam	more active than Avibactam
N=C(N)N[C@H]1C[C@H](c2nnc([C@@H]3CC[C@@H]4CN3C(=O)N4OS(=O)(=O)O)o2)C1 [Compound 748, (2S,5R)-2-(5-((1r,3S)-3-guanidinocyclobutyl)-1,3,4-oxadiazol-2-yl)-7-oxo-1,6-diazabicyclo[3.2.1]octan-6-yl hydrogen sulfate]	more active than Avibactam	
N[C@H]1C[C@H](NCc2nnc([C@@H]3CC[C@@H]4CN3C(=O)N4OS(=O)(=O)O)o2)C1 [Compound 757, (2S,5R)-2-(5-(((1r,3S)-3-aminocyclobutyl)amino)methyl)-1,3,4-oxadiazol-2-yl)-7-oxo-1,6-diazabicyclo[3.2.1]octan-6-yl hydrogen sulfate]	more active than Avibactam	
O=C1N2C[C@@H](CC[C@H]2c2nnc(CNC3CCNCC3)o2)N1OS(=O)(=O)O [Compound 769, (2S,5R)-7-oxo-2-(5-((piperidin-4-ylamino)methyl)-1,3,4-oxadiazol-2-yl)-1,6-diazabicyclo[3.2.1]octan-6-yl hydrogen sulfate]	more active than Avibactam	
NC1CCN(c2nnc([C@@H]3CC[C@@H]4CN3C(=O)N4OS(=O)(=O)O)o2)CC1 [Compound 773, (2S,5R)-2-(5-(4-aminopiperidin-1-yl)-1,3,4-oxadiazol-2-yl)-7-oxo-1,6-diazabicyclo[3.2.1]octan-6-yl hydrogen sulfate]	more active than Avibactam	
NC1CCN(CCc2nnc([C@@H]3CC[C@@H]4CN3C(=O)N4OS(=O)(=O)O)o2)CC1 [Compound 775, (2S,5R)-2-(5-(2-(4-aminopiperidin-1-yl)ethyl)-1,3,4-oxadiazol-2-yl)-7-oxo-1,6-diazabicyclo[3.2.1]octan-6-yl hydrogen sulfate]		more active than Avibactam
O=C1N2C[C@@H](CC[C@H]2c2nnc([C@@H]3CNCCN3)o2)N1OS(=O)(=O)O [Compound 778, (2S,5R)-7-oxo-2-(5-((S)-piperazin-2-yl)-1,3,4-oxadiazol-2-yl)-1,6-diazabicyclo[3.2.1]octan-6-yl hydrogen sulfate]	more active than Avibactam	
N[C@H]1CC[C@@H](c2nnc([C@@H]3CC[C@@H]4CN3C(=O)N4OS(=O)(=O)O)o2)CC1 [Compound 780, (2S,5R)-2-(5-((1s,4R)-4-aminocyclohexyl)-1,3,4-oxadiazol-2-yl)-7-oxo-1,6-diazabicyclo[3.2.1]octan-6-yl hydrogen sulfate]	more active than Avibactam	
N[C@H]1CC[C@H](c2nnc([C@@H]3CC[C@@H]4CN3C(=O)N4OS(=O)(=O)O)o2)CC1 [Compound 781, (2S,5R)-2-(5-((1r,4S)-4-aminocyclohexyl)-1,3,4-oxadiazol-2-yl)-7-oxo-1,6-diazabicyclo[3.2.1]octan-6-yl hydrogen sulfate]	more active than Avibactam	
O=C1N2C[C@@H](CC[C@H]2c2nnc(CCCN3CCNCC3)o2)N1OS(=O)(=O)O [Compound 792, (2S,5R)-7-oxo-2-(5-(3-(piperazin-1-yl)propyl)-1,3,4-oxadiazol-2-yl)-1,6-diazabicyclo[3.2.1]octan-6-yl hydrogen sulfate]	more active than Avibactam	
O=C1N2C[C@@H](CC[C@H]2c2nnc(N3CCNCC3)s2)N1OS(=O)(=O)O [Compound 797, (2S,5R)-7-oxo-2-(5-(piperazin-1-yl)-1,3,4-thiadiazol-2-yl)-1,6-diazabicyclo[3.2.1]octan-6-yl hydrogen sulfate]	more active than Avibactam	
